Measurements from ChEMBL document CHEMBL1123826, “Nitrogen bridgehead compounds. 66. Bronchodilator nitrogen bridgehead compounds with a pyrimidinone moiety” (J Med Chem, 1987).

Experiments:
Cavia porcellus [1] = organism: Cavia porcellus; test: Bronchodilator activity against serotonin-induced spasm in guinea pig; type: functional; settings: read-out: ID50 (the source's name)
Cavia porcellus [2] = organism: Cavia porcellus; test: Bronchodilator activity against acetylcholine-induced spasm in guinea pig; type: functional; settings: read-out: ID50 (the source's name)
Cavia porcellus [3] = organism: Cavia porcellus; test: Bronchodilator activity against histamine-induced spasm in guinea pig; type: functional; settings: read-out: ID50 (the source's name)
Cavia porcellus [4] = organism: Cavia porcellus; test: […] activity was evaluated by inhibition of histamine induced spasm in isolated guinea pig ileum; type: functional
Cavia porcellus [5] = organism: Cavia porcellus; test: […] activity was evaluated by inhibition of nicotinate induced spasm in isolated guinea pig ileum; type: functional
Homo sapiens [6] = organism: Homo sapiens; test: Compound was tested for Bronchodilator activity against isolated human bronchus contracted by carbachol; type: functional
Cavia porcellus [7] = organism: Cavia porcellus; test: […] activity was evaluated by inhibition of acetylcholine induced spasm in isolated guinea pig ileum; type: functional
[8] = Ratio of pA2 to pD2 was determined on isolated guinea pig trachea; type: functional
Cavia porcellus [9] = organism: Cavia porcellus; test: […] activity was evaluated by inhibition of serotonin induced spasm in isolated guinea pig ileum; type: functional
Cavia porcellus [10] = organism: Cavia porcellus; test: […] activity was evaluated by inhibition of BaCl2 induced spasm in isolated guinea pig ileum; type: functional
Cavia porcellus [11] = organism: Cavia porcellus; test: Compound was tested for Anticholenergic activity on isolated guinea pig trachea contracted by carbachol; type: functional; settings: for Kb: read-out: pA2 (converted)
[12] = Relative potency is ratio of IC50 of theophylline / IC50 was determined; type: functional
Homo sapiens [13] = organism: Homo sapiens; test: compound was tested for Bronchodilator activity against isolated human bronchus contracted by carbachol; type: functional
Cavia porcellus [14] = organism: Cavia porcellus; test: Compound was tested for Bronchodilator activity against acetylcholine-induced spasm in guinea pig by Konzett-Rossler test; type: organism-based; settings: in vivo
Cavia porcellus [15] = test: Compound was tested for Bronchodilator activity against acetylcholine-induced spasm in guinea pig by Konzett-Rossler test; dose administered by intraduodenal route.; type: functional; settings: read-out: ID50 (the source's name)
Cavia porcellus [16] = test: Compound was tested for Bronchodilator activity against histamine-induced spasm in guinea pig by Konzett-Rossler test; dose administered by intraduodenal route.; type: functional; settings: read-out: ID50 (the source's name)
Cavia porcellus [17] = test: Compound was tested for Bronchodilator activity against serotonin-induced spasm in guinea pig by Konzett-Rossler test; dose administered by intraduodenal route; type: functional; settings: read-out: ID50 (the source's name)
Cavia porcellus [18] = test: Compound was tested for Bronchodilator activity against serotonin-induced spasm in guinea pig by Konzett-Rossler test; dose administered by intraduodenal route.; type: functional; settings: read-out: ID50 (the source's name)
[19] = Relative potency calculated from ratio of IC50 of theophylline / IC50 was determined; type: functional
[20] = Homo sapiens, Bronchus, read-out: IC50

Structure (SMILES) | ED50 (Cavia porcellus [1]) [µmol/kg] | ED50 (Cavia porcellus [2]) [µmol/kg] | ED50 (Cavia porcellus [3]) [µmol/kg] | also measured
CCc1c(C)nc2c(C)cccn2c1=O | 12.3 | 36.4 | 5.1 | 
Cc1ccc2nc3n(c(=O)c2c1)CCC3 | 11.3 | 29 | 29.8 | 
Cl.O=c1c2c(nc3n1CCCCC3)CCCC2 |  |  |  | IC50 (Cavia porcellus [4]): > 100 µM; IC50 (Cavia porcellus [5]): 49.5 µM; IC50 (Homo sapiens [6]): 5.4 µM; IC50 (Cavia porcellus [7]): 5.01 µM; Ratio [8]: 1.06; IC50 (Cavia porcellus [9]): 752 uM l-1; IC50 (Cavia porcellus [10]): 123 uM l-1; pD2 (Cavia porcellus [11]): 5.39; Kb (Cavia porcellus [11]): 1.91 µM
O=c1c2c(nc3n1CCCCC3)CCCCC2 | 30.8 | 7.2 | 33.8 | 
CC1CCc2nc3c(c(=O)n2C1)CCC3 (configuration not stated) | 39.6 | 17.6 | 7.2 | 
CC1CCCn2c1nc1c(c2=O)CCC1 (configuration not stated) | 7.7 | 12.8 | 11.5 | 
O=c1c2c(nc3n1CCC3)CCCCC2 | 33 | 38.5 | 27.6 | 
O=c1nc2n(c3c1CCCC3)CCCCC2 | 55.1 | > 32 | > 32 | 
CCOC(=O)c1ccc2c(=O)n3c(nc2c1)CCC3 | > 32 | > 32 | 14.4 | 
O=c1c2c(nc3n1CCCCCC3)CCCC2 | 44.6 | 58.5 | 27.1 | 
Cc1ccc2nc3c(c(=O)n2c1)CCC3 | 14.4 | 29.1 | 29.2 | 
O=C(O)c1ccc2nc3n(c(=O)c2c1)CCCC3 | > 100 | > 100 | > 100 | 
O=C(O)c1ccc2c(=O)n3c(nc2c1)CCC3 | > 100 | > 100 | > 100 | 
O=C(O)c1ccc2c(=O)n3c(nc2c1)CCCCC3 | > 100 | > 100 | > 100 | 
Cc1ccn2c(=O)c3c(nc2c1)CCC3 | 22.6 | 29.6 | 15.7 | 
CCc1c(C)nc2n(c1=O)CCC(C)C2 (configuration not stated) | 18.4 | 28.2 | 23.2 | Relative potency [12]: 2.02; IC50 (Homo sapiens [13]; [20]): 74.6 µM
Cc1cccn2c(=O)c3c(nc12)CCCC3 | 15.6 | 15.7 | 7 | Relative potency [12]: 2.26; IC50 (Homo sapiens [13]; [20]): 66.6 µM
O=c1c2ccccc2nc2n1CCCCCC2 | > 100 | 61.8 | 61.8 | 
CC1CCn2c(nc3c(c2=O)CCC3)C1 (configuration not stated) | 22.5 | 56.4 | 18.9 | Relative potency [12]: 1.07; IC50 (Homo sapiens [13]): 141 uM l-1
CC1CCn2c(nc3c(c2=O)CCCC3)C1 (configuration not stated) | 39.3 | 29.9 | 25.7 | 
COc1ccccc1.Cn1c(=O)c2nc[nH]c2n(C)c1=O | 10 | 22 | 10 | Relative potency [12]: 1; IC50 (Homo sapiens [6]): 151 uM l-1
CCc1c(C)nc2cccc(C)n2c1=O | 9.6 | 25.6 | 10.2 | Relative potency [12]: 2.1; IC50 (Homo sapiens [6]; [20]): 71.8 µM
Cc1ccc2nc3c(c(=O)n2c1)CCCC3 | 20.4 | 32 | 15.6 | 
CC1CCCc2nc3ccccc3c(=O)n21 (configuration not stated) | 30.2 | > 100 | 27 | 
CCc1c(C)nc2ccccn2c1=O.Cl | 12 | 29.4 | 8.6 | Relative potency [12]: 1.19; IC50 (Homo sapiens [6]): 127 uM l-1

Structure (SMILES) | ED50 (Cavia porcellus [1]) [µmol/kg] | ED50 (Cavia porcellus [2]) [µmol/kg] | ED50 (Cavia porcellus [3]) [µmol/kg] | also measured
O=C(O)c1ccc2nc3n(c(=O)c2c1)CCCCC3 | > 100 | > 100 | > 100 | 
Cc1cccn2c(=O)c3c(nc12)CCCCCC3 | 14.3 | 42.6 | 23.8 | 
Cc1ccc2nc3n(c(=O)c2c1)CCCCC3 | 44.7 | 16 | 25.3 | 
CCc1c(C)nc2cc(C)ccn2c1=O | 29.7 | 36.7 | 20.9 | 
CC1CCn2c1nc1ccccc1c2=O (configuration not stated) | 29.4 | 45.8 | 27.3 | 
CC1CCCc2nc3c(c(=O)n21)CCCC3 (configuration not stated) | 14 | 20.3 | 24.7 | 
Cc1ccn2c(=O)c3c(nc2c1)CCCC3 | 21.9 | 37.7 | 20.4 | 
COC(=O)c1ccc2nc3n(c(=O)c2c1)CCCC3 | 12.3 | > 32 | 16.8 | 
O=c1nc2n(c3c1CCCCC3)CCC2 | > 32 |  | > 32 | ID50 (Cavia porcellus [14]): > 32 µM/kg
Cl.O=c1c2c(nc3ccccn13)CCCC2 | 16.7 | 18.2 | 6.1 | Relative potency [12]: 1.18; IC50 (Homo sapiens [6]): 127 uM l-1
Cc1ccc2c(=O)n3c(nc2c1)CCCCC3 | 39.4 | 76 | 25.6 | 
CCOC(=O)c1ccc2c(=O)n3c(nc2c1)CCCCC3 |  |  |  | ED50 (Cavia porcellus [15]): 24.5 µmol/kg; ED50 (Cavia porcellus [16]): 32 µmol/kg; ED50 (Cavia porcellus [17]): 10 µmol/kg
S=c1c2c(nc3n1CCCCC3)CCCC2 | > 320 | > 320 | > 320 | 
O=c1nc2n(c3c1CCC3)CCC2 | > 100 | > 100 | > 100 | 
Cc1cccn2c(=O)c3c(nc12)CCC3 | 11.2 | 21.6 | 10.2 | Relative potency [12]: 1.54; IC50 (Homo sapiens [6]; [20]): 97.7 µM
Cl.O=c1c2c(nc3ccccn13)CCC2 | 17.6 | 32.4 | 10.5 | Relative potency [12]: 0.17; IC50 (Homo sapiens [6]): 879 uM l-1
CC1CCc2nc3ccccc3c(=O)n21 (configuration not stated) | 12.2 | 48.2 | 10.4 | 
CCc1c(C)nc2ccc(C)cn2c1=O | 16.6 | 24 | 12.4 | 
CC1CCc2nc3c(c(=O)n2C1)CCCC3 (configuration not stated) | 38.1 | 28.9 | 23.6 | 
CC1CCCCn2c1nc1c(c2=O)CCCC1 (configuration not stated) |  |  |  | ED50 (Cavia porcellus [15]): > 320 µmol/kg; ED50 (Cavia porcellus [16]): > 320 µmol/kg; ED50 (Cavia porcellus [18]): > 320 µmol/kg
O=c1nc2n(c3c1CCCC3)CCC2 | 107 | > 100 | > 100 | 
O=c1c2c(nc3n1CCCC3)CCCCC2 | 12.7 | 11.8 | 15.2 | 
S=c1c2c(nc3n1CCCCC3)CCC2 | > 320 | > 320 | > 320 | 
Cc1cccc2nc3c(c(=O)n12)CCC3 | 4.3 | 29.3 | 7.2 | 
O=c1c2c(nc3n1CCCCC3)CCC2 |  |  |  | IC50 (Cavia porcellus [4]): > 100 µM; IC50 (Cavia porcellus [5]): 75 µM; Relative potency [12]: 9.93; IC50 (Homo sapiens [6]): 15.2 µM; IC50 (Cavia porcellus [7]): 2.53 µM; Ratio [8]: 1.23; IC50 (Cavia porcellus [9]): 112 uM l-1; IC50 (Cavia porcellus [10]): 113 uM l-1; pD2 (Cavia porcellus [11]): 5.37; Kb (Cavia porcellus [11]): 0.229 µM

Structure (SMILES) | ED50 (Cavia porcellus [1]) [µmol/kg] | ED50 (Cavia porcellus [2]) [µmol/kg] | ED50 (Cavia porcellus [3]) [µmol/kg] | also measured
CC1CCCn2c1nc1c(c2=O)CCCC1 (configuration not stated) | 36.2 | 47.1 | 19.8 | 
O=c1c2c(nc3n1CCC3)CCCC2 | 29.8 | 51.1 | 24.1 | 
CCOC(=O)c1c[n+](C)c2n(c1=O)C(C)CCC2 (configuration not stated) [RIMAZOLIUM METILSULFATE] | 14 | 31 | 8 | 
CC1CCCc2nc3c(c(=O)n21)CCC3 (configuration not stated) | 13.8 | 18.2 | 11.7 | 
O=c1c2c(nc3n1CCC3)CCC2 | 82.5 | > 100 | 46.1 | 
CCOC(=O)c1ccc2c(=O)n3c(nc2c1)CCCC3 | > 32 | > 32 | 15.1 | 
O=c1c2c(nc3n1CCCCC3)CCCCCC2 | > 100 | 2.26 | 33 | 
O=c1c2c(nc3n1CCCCC3)CCCC2 [listing 1 of 2 here] |  |  |  | Relative potency [19]: 28
O=c1c2cc3c(cc2nc2n1CCCCC2)OCO3 | 13.1 | 22.7 | > 32 | 
CC1CCc2nc3c(c(=O)n21)CCCC3 (configuration not stated) | 46.8 | 74.6 | 19.7 | 
Cc1cccc2nc3c(c(=O)n12)CCCC3 | 6.1 | 10 | 9.7 | 
COC(=O)c1ccc2nc3n(c(=O)c2c1)CCC3 | 11.7 | 44.1 | 27 | 
COC(=O)c1ccc2nc3n(c(=O)c2c1)CCCCC3 |  |  |  | ED50 (Cavia porcellus [15]): > 32 µmol/kg; ED50 (Cavia porcellus [16]): 32 µmol/kg; ED50 (Cavia porcellus [18]): 32 µmol/kg
O=c1c2c(nc3ccccn13)CCCCCC2 | 49 | 53.3 | 32.7 | 
O=c1c2c(nc3n1CCCCC3)CCCC2 [listing 2 of 2 here] | 3 |  | 3 | 
O=C(O)c1ccc2c(=O)n3c(nc2c1)CCCC3 | > 100 | > 100 | > 100 | 
O=C(O)c1ccc2nc3n(c(=O)c2c1)CCC3 | > 100 | > 100 | 215 | 
Cc1cccc2c(=O)n3c(nc12)CCCCC3 |  |  |  | ED50 (Cavia porcellus [15]): > 32 µmol/kg; ED50 (Cavia porcellus [16]): > 32 µmol/kg; ED50 (Cavia porcellus [18]): > 32 µmol/kg
O=c1c2c(nc3n1CCC3)CCCCCC2 | 57.1 | 100 | 164 | 
O=c1c2ccccc2nc2n1CCCC2 | 15.2 | 31.1 | 11.1 | 
O=c1c2c(nc3n1CCCC3)CCC2 | 24.1 | 23.7 | 25.7 | 
O=c1c2ccccc2nc2n1CCC2 | 21.2 | 37.7 | 16.9 | 
O=c1c2c(nc3n1CCCC3)CCCC2 | 33.3 | 44.5 | 22 | 
